Laboratory results as given in patent US20240398947A1, “CAR T-CELL ADJUVANT THERAPIES” (CytoAgents, Inc., priority 2020, published 2024).

Columns and labels:
normal human PBMC [1] = assay: Cytokine release assay in stimulated normal human PBMC (Luminex multiplex); type: cell-based; conditions: for significant reduction of IL-1α / significant reduction of IL-1β: 5 donors
normal human PBMC [2] = assay: AlamarBlue cell viability of treated PBMC; type: cell-based; conditions: PBMC of Donors 1-5, 48 hours post stimulation, GP1681 750 μM
Method: Following pre-treatment, cells were stimulated with either LPS or Poly (I:C). Twenty-four to forty-eight hours post-stimulation supernatants were collected and tested both for viability (48 hours) as well as concentrations of 29 different cytokines (24 hours.). Viability assessments confirmed the lack of GP1681-associated cell cytotoxicity. Statistical comparisons in individual donor results were conducted between all test groups within each donor group (between individual stimulant-treatment pairs) to determine efficacy of stimulation as well as any potential GP1681 effects on cytokine production. Additionally, statistical analysis was performed on pooled donor data for each cytokine stimulant-treatment pair to comprehensively determine cytokine suppression effects of GP1681 for each cytokine.
After resting the cells, 100 μl of GP1681 was added to appropriate wells at a final dosing concentration of 750 μM. […] For cell stimulation, 20 μL of the 1.0 ng/ml LPS solution or the 250 μg/ml Poly (I:C) solution were added to appropriate wells according to the group designation. Twenty-four hours later 100 uL of supernatant were collected from all wells and stored for cytokine analysis. Approximately four hours before final harvest, AlamarBlue dye was added to all wells. At forty-eight hours post stimulation all samples were collected, and supernatants tested for cell viability. […]

influenza (H1N1) = type: in vivo, mice
influenza (H5N1) = conditions: in vivo influenza (H5N1), Gemmus Pharma studies; cited from earlier work
CRS = assay: Mouse model of CAR T-cell therapy induced CRS (Raji-luc tumor); conditions: IP, BID for 7 days
[3] = LPS-stimulated PBMC, 24 h supernatant, DEX 1 μM, GP1681 750 μM
[4] = Poly(I:C)-stimulated PBMC, 24 h supernatant, DEX 1 μM, GP1681 750 μM
[5] = in vivo influenza (H1N1), current CytoAgents studies

For `CC#CC[C@H](C)[C@H](O)/C=C/[C@@H]1[C@H]2c3cccc(CCCC(=O)[O-])c3O[C@H]2C[C@H]1O.[Na+]` [GP1681, esuberaprost sodium salt], the “number of cytokines reduced of the 29 cytokines analyzed” value (normal human PBMC [1]; LPS or Poly(I:C) stimulated PBMC, pooled and individual donor results) was 21, the “significant reduction of IL-1α” value (normal human PBMC [1]; [3]) was “YES” and the “significant reduction of IL-1β” value (normal human PBMC [1]; [3]) was “YES”. For the same compound, the “significant reduction of CCL2 (MCP-1)” value (normal human PBMC [1]; [3]) was “YES”, the “significant reduction of CCL3 (MIP1 α)” value (normal human PBMC [1]; [3]) was “YES” and the “significant reduction of CCL5 (RANTES)” value (normal human PBMC [1]; [3]) was “YES”. The “significant reduction of CXCL9 (MIG)” value (normal human PBMC [1]; [3]) was “YES”, the “significant reduction of CXCL10 (IP-10)” value (normal human PBMC [1]; [3]) was “YES” and the “significant reduction of FGF” value (normal human PBMC [1]; [3]) was “YES”. For the same compound, the “significant reduction of GM-CSF” value (normal human PBMC [1]; [3]) was “YES”, the “significant reduction of IFN-α2” value (normal human PBMC [1]; [3]) was “YES” and the “significant reduction of IFN-γ” value (normal human PBMC [1]; [3]) was “YES”. For the same compound, the “significant reduction of IL-4” value (normal human PBMC [1]; [3]) was “YES”, the “significant reduction of IL-5” value (normal human PBMC [1]; [3]) was “YES” and the “significant reduction of IL-9” value (normal human PBMC [1]; [3]) was “YES”. The “significant reduction of IL-12” value (normal human PBMC [1]; [3]) was “YES”, the “significant reduction of IL-13” value (normal human PBMC [1]; [3]) was “YES” and the “significant reduction of IL-15” value (normal human PBMC [1]; [3]) was “YES”. The “significant reduction of IL-17” value (normal human PBMC [1]; [3]) was “YES”, the “significant reduction of IL-18” value (normal human PBMC [1]; [3]) was “YES” and the “significant reduction of PDGF” value (normal human PBMC [1]; [3]) was “YES”. The “significant reduction of TNF α” value (normal human PBMC [1]; [3]) was “YES”, the “significant reduction of IL-1α” value (normal human PBMC [1]; [4]) was “YES” and the “significant reduction of IL-1β” value (normal human PBMC [1]; [4]) was “YES”. The “significant reduction of CCL2 (MCP-1)” value (normal human PBMC [1]; [4]) was “YES”, the “significant reduction of CCL5 (RANTES)” value (normal human PBMC [1]; [4]) was “YES” and the “significant reduction of CXCL9 (MIG)” value (normal human PBMC [1]; [4]) was “YES”. For the same compound, the “significant reduction of CXCL10 (IP-10)” value (normal human PBMC [1]; [4]) was “YES”, the “significant reduction of IFN-α2” value (normal human PBMC [1]; [4]) was “YES” and the “significant reduction of IFN-γ” value (normal human PBMC [1]; [4]) was “YES”. For the same compound, the “significant reduction of IL-4” value (normal human PBMC [1]; [4]) was “YES”, the “significant reduction of IL-5” value (normal human PBMC [1]; [4]) was “YES” and the “significant reduction of IL-12” value (normal human PBMC [1]; [4]) was “YES”. For the same compound, the “significant reduction of IL-13” value (normal human PBMC [1]; [4]) was “YES”, the “significant reduction of IL-15” value (normal human PBMC [1]; [4]) was “YES” and the “significant reduction of IL-18” value (normal human PBMC [1]; [4]) was “YES”. The “significant reduction of PDGF” value (normal human PBMC [1]; [4]) was “YES”, the “significant reduction of TNF α” value (normal human PBMC [1]; [4]) was “YES” and the “number of different cytokines whose production is down regulated” value (normal human PBMC [1]; data from Gemmus Pharma, Inc studies and the present work together) was “approximately 25”. For the same compound, the “nominal reduction in the ex vivo production of IFNα” value (normal human PBMC [1]; stimulated PBMC, statistically significant) was “less than 2 fold”, the “cytotoxicity (Alamar blue viability assessment)” value (normal human PBMC [2]) was “no cytotoxicity” and the “IL-2 reduced by treatment” value (influenza (H1N1); [5]) was “reduced”. The “IL-6 reduced by treatment” value (influenza (H1N1); [5]) was “reduced”, the “IL-10 reduced by treatment” value (influenza (H1N1); [5]) was “reduced” and the “IL-8 production suppressed by treatment” value (influenza (H1N1); mouse, in vivo) was “significantly suppressed”. The “repression of IFNα concentrations” value (influenza (H1N1); mouse, in vivo) was “no significant repression”, the “IL-2 reduced by treatment” value (influenza (H5N1)) was “reduced” and the “IL-6 reduced by treatment” value (influenza (H5N1)) was “reduced”. The “IL-8 reduced by treatment” value (influenza (H5N1)) was “reduced”, the “IL-10 reduced by treatment” value (influenza (H5N1)) was “reduced” and the “cytokine production, comparison with dexamethasone” value (CRS) was “superior to dexamethasone”. The “survival benefits over dexamethasone” value (CRS) was “greater survival benefits”.
